Assay results reported in article PMC8228141, “Antiprotozoal Nor-Triterpene Alkaloids from Buxus sempervirens L” (Antibiotics, 2021).
Several values for one entry are separate records, joined by “and”; a condition that tells them apart may be missing. Equal entries are not always repeated. Where two headings read alike, the source gives them in different places.

Experiments:
[1] = Cytotoxicity against mammalian control cells; assay type: cell-based, rat; settings: rat
Experimental: (§1) After isolation, all alkaloids were tested in vitro for antiplasmodial and antitrypanosomal activity against Plasmodium falciparum (Pf) and Trypanosoma brucei rhodesiense (Tbr). Furthermore, to assess their selectivity against the parasites, cytotoxicity against L6 rat skeletal myoblasts, as mammalian control cells, was tested (Table 4).
(§2) In vitro assays for the bioactivity of the isolated Buxus-alkaloids against Tbr (bloodstream trypomastigotes, STIB 900 strain), Trypanosoma cruzi (Tc) (amastigotes, Tulahuen C4 strain), Leishmania donovani (Ldo) (amastigotes, MHOM-ET-67/L82 strain) and Pf (intraerythrocytic forms, NF54 strain), and cytotoxicity tests against mammalian cells (L6-cell line from rat-skeletal myoblasts), were performed at the Swiss Tropical and Public Health Institute (Swiss TPH, Basel, Switzerland) according to established standard protocols.

[2] = test system: Plasmodium falciparum (Pf) (intraerythrocytic forms, NF54 strain); test: In vitro antiplasmodial activity; assay type: cell-based; settings: for SI Pf (selectivity index): cytotoxicity L6 vs Pf
Experimental: as §1, §2

[3] = test system: Trypanosoma brucei rhodesiense (Tbr) (bloodstream trypomastigotes, STIB 900 strain); test: In vitro antitrypanosomal activity; assay type: cell-based; settings: for SI Tbr (selectivity index): cytotoxicity L6 vs Tbr
Experimental: as §1
In vitro assays for the bioactivity of the isolated Buxus-alkaloids against Tbr (bloodstream trypomastigotes, STIB 900 strain), Trypanosoma cruzi (Tc) (amastigotes, Tulahuen C4 strain), Leishmania donovani (Ldo) (amastigotes, MHOM-ET-67/L82 strain) and Pf (intraerythrocytic forms, NF54 strain), and cytotoxicity tests against mammalian cells (L6-cell line from rat-skeletal myoblasts), were performed at the Swiss Tropical and Public Health Institute (Swiss TPH, Basel, Switzerland) according to established standard protocols. […] Such a pattern of activity was also observed in other studies.

[4] = test system: L6 rat skeletal myoblasts; test: Cytotoxicity against mammalian control cells; assay type: cell-based; settings: L6 cell line; for Cytotox. IC50: mean of n = 2 (fluctuation range) or * n = 3 (SD); for IC50: read-out: Cytotox. IC50 (in parentheses) (converted)
Experimental: as §1, §2

[5] = NF54 strain, read-out: Pf IC50 (in parentheses) (converted)
[6] = Plasmodium falciparum, NF54, NF54 strain, mean of n = 2 (fluctuation range) or * n = 3 (SD), read-out: Pf IC50
[7] = Plasmodium falciparum, NF54, NF54 strain, read-out: Pf IC50 (in parentheses) (converted)
[8] = Trypanosoma brucei, STIB 900 strain, mean of n = 2 (fluctuation range) or * n = 3 (SD), read-out: Tbr IC50
[9] = Trypanosoma brucei, STIB 900 strain, read-out: Tbr IC50 (in parentheses) (converted)
[10] = L6 rat skeletal myoblast cells, L6 cell line, mean of n = 2 (fluctuation range) or * n = 3 (SD), read-out: Cytotox. IC50
[11] = L6 rat skeletal myoblast cells, L6 cell line, read-out: Cytotox. IC50 (in parentheses) (converted)
[12] = NF54 strain, mean of n = 2 (fluctuation range) or * n = 3 (SD)
[13] = STIB 900 strain, mean of n = 2 (fluctuation range) or * n = 3 (SD)
[14] = STIB 900 strain, read-out: Tbr IC50 (in parentheses) (converted)

## COc1cc([C@@H]2c3cc4c(cc3[C@H](O)[C@H]3COC(=O)[C@H]23)OCO4)cc(OC)c1OC [Podophyllotoxin, reference compound]
[1]; L6 cell line, mean of n = 2 (fluctuation range) or * n = 3 (SD), read-out: Cytotox. IC50
  IC50: 0.006 ± 0.001 µg/mL

## C/C=C(\C)C(=O)O[C@@H]1C[C@@]2(C)[C@@H]3C=C[C@H]4[C@](C)(CO)[C@@H](N(C)C)CC[C@@]45C[C@@]35CC[C@]2(C)[C@H]1[C@H](C)N(C)C [Compound 4, O-tigloylcyclomicrophylline-A]
[2]; [5]
  IC50: 0.7 µM
[2]; [6]
  IC50: 0.35 ± 0.08 µg/mL
[2]; [7]
  IC50: < 1 µM
[2]
  SI Pf (selectivity index): 34
[3]; [8]
  IC50: 1.5 ± 0.76 µg/mL
[3]; [9]
  IC50: 2.9 µM
[3]
  SI Tbr (selectivity index): 8
[1]
  IC50: 12 µg/mL and 22.8 µM

## CC(=O)O[C@@H]1C[C@@]2(C)[C@@H]3CC[C@@H]4C(=CC[C@H](N(C)C)C4(C)C)CC3=CC[C@]2(C)[C@H]1[C@H](C)NC(=O)c1ccccc1 [Compound 23, N-benzoyl-O-acetylbuxadine-E]
[2]; [6]
  IC50: 4.2 ± 0.4 µg/mL
[2]; [7]
  IC50: 7.7 µM
[2]
  SI Pf (selectivity index): 7
[3]; [8]
  IC50: 3.1 ± 0.6 µg/mL
[3]; [9]
  IC50: 5.7 µM
[3]
  SI Tbr (selectivity index): 9
[1]; [10]
  IC50: 27.5 ± 16 µg/mL
[1]; [11]
  IC50: 50.4 µM

## CN[C@H]1CC=C2CC3=CC[C@@]4(C)[C@@](C)(CC[C@]4(O)[C@H](C)O)[C@@H]3CC[C@H]2C1(C)C [Compound 25, 17,20-dihydroxybuxadine-M]
[2]; [6]
  IC50: 3.6 ± 0.05 µg/mL
[2]; [7]
  IC50: 9.3 µM
[2]
  SI Pf (selectivity index): 12
[3]; [8]
  IC50: 6.7 ± 0.49 µg/mL
[3]; [9]
  IC50: 17.3 µM
[3]
  SI Tbr (selectivity index): 7
[1]; [10]
  IC50: 44.5 ± 5.5 µg/mL
[1]; [11]
  IC50: 115 µM

## CC(C1C(OC(=O)c2ccccc2)CC2(C)C3C=CC4C(C)(CO)C(N(C)C)CCC45CC35CCC12C)N(C)C (stereo not drawn) [Compound 6, Cyclomicrophyllidine-A]
[2]; [12]
  Pf IC50: 0.4 ± 0.02 µg/mL
[2]; [5]
  IC50: 0.7 µM
[3]; [13]
  Tbr IC50: 0.69 ± 0.06 µg/mL
[3]; [14]
  IC50: 1.3 µM
[4]
  Cytotox. IC50: 9.3 ± 3 µg/mL
  IC50: 17 µM

## CC(=O)N[C@@H](C)[C@H]1CC[C@@]2(C)[C@@H]3CC[C@@H]4C(=CC3=CC[C@]12C)CC[C@H](N(C)C)C4(C)C [Compound 21, N20-acetylbuxamine-E]
[2]; [12]
  Pf IC50: 3.1 ± 0.24 µg/mL
[2]; [5]
  IC50: 7.3 µM
[3]; [13]
  Tbr IC50: 53 ± 1 µg/mL
[3]; [14]
  IC50: 124 µM
[4]
  Cytotox. IC50: 54.8 ± 1.1 µg/mL
  IC50: 129 µM

## C[C@@H]([C@H]1[C@H](O)C[C@@]2(C)[C@@H]3CC[C@@H]4[C@@]5(CCC(=O)[C@@]4(C)CO)C[C@@]35CC[C@]12C)N(C)C [Compound 11, 29-hydroxy-cyclomikuranine-L]
[2]; [6]
  IC50: 0.9 ± 0.13 µg/mL
[2]; [7]
  IC50: 2.2 µM
[2]
  SI Pf (selectivity index): 49
[3]; [8]
  IC50: 2.9 ± 1 µg/mL
[3]; [9]
  IC50: 7 µM
[3]
  SI Tbr (selectivity index): 15
[1]
  IC50: 44 µg/mL and 105 µM

## CC(=O)OC[C@]1(C)[C@@H](NC(=O)c2ccccc2)CC[C@]23C[C@]24C(=O)C[C@]2(C)[C@@H]([C@H](C)N(C)C)CC[C@@]2(C)[C@@H]4CC[C@@H]13 [Compound 9, N-benzoyl-O-acetyl-cycloxo-buxoline-F]
[2]; [12]
  Pf IC50: 2.15 ± 0.29 µg/mL
[2]; [5]
  IC50: 3.8 µM
[3]; [13]
  Tbr IC50: 1.35 ± 0.45 µg/mL
[3]; [14]
  IC50: 2.4 µM
[4]
  Cytotox. IC50: 41 ± 0.7 µg/mL
  IC50: 73 µM

## C=C1C2CC[C@@H]3[C@]4(CC[C@]5(C)[C@@H](C(C)=O)[C@H](O)C[C@@]35C)C[C@]24CC[C@@H]1NC (stereo partly drawn) [Compound 17, Cyclomicrobuxinine]
[2]; [6]
  IC50: 4.1 ± 0.8 µg/mL
[2]; [7]
  IC50: 10.9 µM
[2]
  SI Pf (selectivity index): 7
[3]; [8]
  IC50: 48 ± 0.2 µg/mL
[3]; [9]
  IC50: 129 µM
[3]
  SI Tbr (selectivity index): 0.6
[1]
  IC50: 30.5 µg/mL and 82 µM

## CC(=O)[C@H]1[C@H](O)C[C@@]2(C)[C@@H]3CC[C@@H]4C(=CC3=CC[C@]12C)CC[C@H](N(C)C)C4(C)C [Compound 20, 16-α-hydroxybuxaminone]
[2]; [12]
  Pf IC50: 1.6 ± 0.57 µg/mL
[2]; [5]
  IC50: 4 µM
[3]; [13]
  Tbr IC50: 5.26 ± 0.3 µg/mL
[3]; [14]
  IC50: 13.2 µM
[4]
  Cytotox. IC50: 45 ± 1 µg/mL
  IC50: 113 µM

## CCN(CC)CCCC(C)Nc1ccnc2cc(Cl)ccc12 (stereo not drawn) [Chloroquine, reference compound]
[2]; Plasmodium falciparum, NF54, read-out: Pf IC50
  IC50: 0.006 ± 0.001 µg/mL
[2]; Plasmodium falciparum, NF54, read-out: Pf IC50 (in parentheses)
  IC50: 0.019 µM

## CC(=O)O[C@@H]1C[C@@]2(C)[C@@H]3CC[C@@H]4C(=CC3=CC[C@]2(C)[C@H]1[C@H](C)NC(=O)c1ccccc1)CC[C@H](N(C)C)C4(C)C [Compound 22, N-benzoyl-O-acetylbuxodienine-E]
[3]; [13]
  Tbr IC50: 3.4 ± 1 µg/mL
[4]
  Cytotox. IC50: 8.5 ± 0.1 µg/mL
  IC50: 15.6 µM

## C=C1[C@@H](N(C)C)CC[C@]23C[C@]24CC[C@]2(C)[C@@H](C(C)=O)[C@H](O)C[C@@]2(C)[C@@H]4CC[C@@H]13 [Compound 18, Cyclomicrobuxine]
[2]; [12]
  Pf IC50: 2.6 ± 0.005 µg/mL
[2]; [5]
  IC50: 6.8 µM
[3]; [13]
  Tbr IC50: 16.9 ± 2.3 µg/mL
[3]; [14]
  IC50: 44 µM
[4]
  Cytotox. IC50: 26.8 ± 8.8 µg/mL
  IC50: 69.6 µM

## C[C@@H]([C@H]1[C@H](O)C[C@@]2(C)[C@@H]3CC[C@H]4C(C)(C)C(=O)C=C[C@@]45C[C@@]35CC[C@]12C)N(C)C [Compound 12, Nb-dimethylcycloxobuxoviricine]
[2]; [12]
  Pf IC50: 1.4 ± 0.44 µg/mL
[2]; [5]
  IC50: 3.5 µM
[3]; [13]
  Tbr IC50: 2.5 ± 0.1 µg/mL
[3]; [14]
  IC50: 6.3 µM
[4]
  Cytotox. IC50: 19 ± 1.2 µg/mL
  IC50: 47.6 µM

## Nc1nc(N)nc(Nc2ccc([As]3SCC(CO)S3)cc2)n1 (stereo not drawn) [Melarsoprol, reference compound]
[3]; Trypanosoma brucei, read-out: Tbr IC50
  IC50: 0.005 ± 0.001 µg/mL
[3]; Trypanosoma brucei, read-out: Tbr IC50 (in parentheses)
  IC50: 0.013 µM

## CC(C1C(O)CC2(C)C3C=CC4C(C)(CO)C(N(C)C)CCC45CC35CCC12C)N(C)C (stereo not drawn) [Compound 5, Cyclomicrophylline-A]
[2]; [12]
  Pf IC50: 0.78 ± 0.08 µg/mL
[2]; [5]
  IC50: 1.76 µM
[3]; [13]
  Tbr IC50: 1.04 ± 0.27 µg/mL
[3]; [14]
  IC50: 2.34 µM
[4]
  Cytotox. IC50: 44 ± 2.3 µg/mL
  IC50: 99 µM

## C/C=C(\C)C(=O)O[C@@H]1C[C@@]2(C)[C@@H]3C=C[C@H]4[C@](C)(CO)[C@@H](N(C)C)CC[C@@]45C[C@@]35CC[C@]2(C)[C@H]1[C@H](C)NC [Compound 3, O-tigloylcyclomicrophylline-B]
[2]; [5]
  IC50: 0.98 µM
[2]; [6]
  IC50: 0.5 ± 0.06 µg/mL
[2]; [7]
  IC50: < 1 µM
[2]
  SI Pf (selectivity index): 72
[3]; [8]
  IC50: 4.6 ± 0.005 µg/mL
[3]; [9]
  IC50: 9 µM
[3]
  SI Tbr (selectivity index): 8
[1]
  IC50: 35.8 µg/mL and 69.9 µM

## C[C@@H]([C@H]1CC[C@H]2[C@@H]3CC=C4C[C@@H](O)CC[C@]4(C)[C@H]3CC[C@]12C)N(C)C [Compound 19, Irehine]
[2]; [12]
  Pf IC50: 1.3 ± 0.35 µg/mL
[2]; [5]
  IC50: 3.8 µM
[3]; [13]
  Tbr IC50: 2.2 ± 0.07 µg/mL
[3]; [14]
  IC50: 6.4 µM
[4]
  Cytotox. IC50: 13.4 ± 0.5 µg/mL
  IC50: 38.8 µM
